Measured values taken from patent US8865624B2, “Inhibitor for tobacco axillary bud growth and method for inhibiting tobacco axillary bud growth” (SDS Biotech K.K., priority 2010, dated 2014).

How the values were obtained:
[1] = system: Tobacco Michinoku 1 (burley cultivar) leaves (first to fourth leaves from the top); test: Harmful effect of inhibitor on tobacco leaves, burley cultivar; assay type: in vivo, Nicotiana tabacum; conditions: in vivo
Protocol: (§1) Tobacco seedlings of Tsukuba 1 (flue-cured cultivar) and Michinoku 1 (burley cultivar) were transplanted to 1/5000a Wagner pots filled with Kureha garden nursery soil. The plants were grown in a glasshouse, and the floral axis parts were removed at the time of single-flower bloom of tobacco (top pruning).
(§2) The formulations of the inhibitors for tobacco axillary bud growth obtained in Formulation Examples 1 to 10 above were each diluted with water to predetermined concentrations, and 20 ml of the water-diluted solutions of the respective inhibitors were separately sprayed using a contact-type axillary bud inhibitor spraying instrument equipped with a spot exhaust nozzle (Examples 1 to 11 and 12 to 22). In addition, butralin (trade name: Blue Ribbon) (Comparative Examples 1 and 3) and decyl alcohol (trade name: Contact) (Comparative Examples 2 and 4) were used for tests as comparative examples in the same manner as above. In the cases of both the flue-cured cultivar and burley cultivar, one plant was planted per pot, and the tests were carried out in duplicate.
(§3) Further, the presence or absence of the harmful effect of each inhibitor was evaluated in one of the following four categories depending on the degrees of growth inhibition, gangrene, change in color, deformation and the like of leaves (first to fourth leaves from the top).
(§4) Large: A severely harmful effect was observed.
(§5) Middle: A clearly harmful effect was observed.
(§6) Small: A slightly harmful effect was observed.
(§7) Absent: No harmful effect was observed.
(§8) The formulation of Formulation Example 11 (cafenstrole), Formulation Example 12 (thenylchlor) or Formulation Example 13 (chlorthal-dimethyl) above was diluted with water to predetermined concentrations, and the resultant was mixed, adjusted and used for tests (Examples 41 to 58 and 59 to 76). In addition, as comparative examples, the formulation of Formulation Example 11, Formulation Example 12 or Formulation Example 13 diluted with water to predetermined concentrations (Comparative Examples 21 to 29 and 34 to 42), butralin (trade name: Blue Ribbon) (Comparative Examples 17, 18, 30, and 31) and decyl alcohol (trade name: Contact) (Comparative Examples 19, 20, 32, and 33) were used for tests in the same manner as above.
(§9) The respective inhibitors were sprayed in the same manner as in Test Example 1, and states of inhibition of axillary bud growth 28 days after the spraying were investigated together with untreated groups sprayed with no inhibitor. Then, axillary bud growth inhibition ratios were calculated.

[2] = system: Tobacco Michinoku 1 (burley cultivar) axillary buds; test: Tobacco axillary bud growth inhibition test, burley cultivar; assay type: in vivo; conditions: Nicotiana tabacum, 672 h, 28 days after the spraying, read-out: Axillary bud growth inhibition ratio
Protocol: as §1, §2
(§10) For the respective cases, states of inhibition of axillary bud growth 28 days after the spraying were investigated together with untreated groups sprayed with no inhibitor, and axillary bud growth inhibition ratios were calculated by the following equation. Axillary bud growth inhibition ratio=(fresh weight of axillary buds per plant of untreated group−fresh weight of axillary buds per plant of treated group)÷(fresh weight of axillary buds per plant of untreated group)×100 [Math. 1]
(§11) The formulation of Formulation Example 1 (cafenstrole), Formulation Example 2 (thenylchlor) or Formulation Example 10 (propisochlor) above was diluted with water to predetermined concentrations and mixed with decyl alcohol (manufactured by Wako Pure Chemical Industries, Ltd.), 2-ethylhexanol (manufactured by Wako Pure Chemical Industries, Ltd.) or geraniol (manufactured by Wako Pure Chemical Industries, Ltd.) at predetermined concentrations, and the resultant was adjusted and used for tests (Examples 23 to 31 and 32 to 40). In addition, as comparative examples, the formulation of Formulation Example 1, […], or Formulation Example 10 diluted with water to predetermined concentrations (Comparative Examples 5 to 7 and 11 to 13) and decyl alcohol, 2-ethylhexanol or geraniol diluted with water to a predetermined concentration were used for tests (Comparative Examples 8 to 10 and 14 to 16).
as §9, §8

[3] = system: Tobacco Tsukuba 1 (flue-cured cultivar) leaves (first to fourth leaves from the top); test: Harmful effect of inhibitor on tobacco leaves, flue-cured cultivar; assay type: in vivo, Nicotiana tabacum; conditions: in vivo
Protocol: as §1, §2, §3, §4, §5, §6, §7, §8, §9

[4] = system: Tobacco Tsukuba 1 (flue-cured cultivar) axillary buds; test: Tobacco axillary bud growth inhibition test, flue-cured cultivar; assay type: in vivo, Nicotiana tabacum; conditions: Nicotiana tabacum, 672 h, 28 days after the spraying, read-out: Axillary bud growth inhibition ratio
Protocol: as §1, §2, §10, §11, §9, §8

COc1ccsc1CN(C(=O)CCl)c1c(C)cccc1C [Thenylchlor]
Harmful effect of inhibitor [1]: Absent | pest or weed control at 0.1 % ([2]; Table 2, burley cultivar, concentration of active ingredient 0.1%): 95% | pest or weed control at 0.05 % ([2]; Table 4, burley cultivar, concentration of active ingredient 0.05%): 70% | pest or weed control at 0.002 % ([2]; Table 6, burley cultivar, concentration of active ingredient 0.002%): 11% | pest or weed control at 0.005 % ([2]; Table 6, burley cultivar, concentration of active ingredient 0.005%): 22% | pest or weed control at 0.01 % ([2]; Table 6, burley cultivar, concentration of active ingredient 0.01%): 28% | Harmful effect of inhibitor [3]: Absent | pest or weed control at 0.1 % ([4]; Table 1, flue-cured cultivar, concentration of active ingredient 0.1%): 96% | pest or weed control at 0.05 % ([4]; Table 3, flue-cured cultivar, concentration of active ingredient 0.05%): 74% | pest or weed control at 0.002 % ([4]; Table 5, flue-cured cultivar, concentration of active ingredient 0.002%): 12% | pest or weed control at 0.005 % ([4]; Table 5, flue-cured cultivar, concentration of active ingredient 0.005%): 14% | pest or weed control at 0.01 % ([4]; Table 5, flue-cured cultivar, concentration of active ingredient 0.01%): 22%
